Results published in patent US10011616B2, “Boron-containing small molecules as antiprotozoal1 agents” (MMV MEDICINES FOR MALARIA VENTURE, priority 2015, dated 2018).

Experiments:
[1] = system: 3D7 strain of Plasmodium falciparum; test: In vitro activity against 3D7 strain of Plasmodium falciparum ([3H]-hypoxanthine incorporation assay); assay type: cell-based; details: Erythrocyte, 48 h, P. falciparum 3D7 in human erythrocytes, 2 d, growth inhibition, read-out: IC50: 1 Org. Growth P. falciparum 3D7, 2 d (LPS_00570)
Protocol: In Vitro Activity Against Plasmodium falciparum a) Against 3D7 Strain of Plasmodium falciparum Inhibition of 3D7 strain parasites was assessed using the [^3H]-hypoxanthine incorporation assay (Desjardins, et al. Antimicrob. Agents Chemother. 1979, 16, 710-718). Briefly, parasites were cultured in human erythrocytes (from the Spanish Red Cross blood bank) using RPMI-1640 culture media (Gibco) supplemented with 0.5% Albumax II (Invitrogen), 2% D-sucrose (Sigma-Aldrich), 0.3% glutamine (Sigma-Aldrich), and 5 mM hypoxanthine (Sigma-Aldrich). Cultures were maintained at 37° C. at an atmosphere of 5% O2, 5% CO2, and […]. To assess inhibition, asynchronous parasite cultures with 0.5% parasitemia and 2% hematocrit were exposed to 3-fold serial dilutions of test compounds for 24 hours in 96 well plate cultures (Costar #3894). After 24 hours, [^3H]-hypoxanthine was added, plates were incubated for an additional 24 hours, and parasites were harvested on glass fiber filters (Wallac #1450-421) using a cell harvester 96 (TOMTEC, Perkin Elmer). Filters were dried on scintillator sheets (MeltiLex A, PerkinElmer #1450-441) to determine incorporation of [^3H]-hypoxanthine. Radioactivity was measured using a microbeta counter (Perkin Elmer). Data are normalized using the incorporation of the positive control (infected erythrocytes without drug). IC50 values were determined using Excel and Grafit 5 software. Values were determined from at least three independent experiments, and standard deviations were calculated.

[2] = system: W2 strain of Plasmodium falciparum; test: In vitro activity against W2 strain of Plasmodium falciparum (YOYO-1 flow cytometry); assay type: cell-based; details: Erythrocyte, 48 h, P. falciparum W2 in human erythrocytes, 2 d, growth inhibition, read-out: IC50: 1 Org. Growth P. falciparum W2, 2 d (LPS_00451)
Protocol: In Vitro Activity Against Plasmodium falciparum
b) Against W2 Strain of Plasmodium falciparum
W2 strain P. falciparum parasites were cultured in human erythrocytes and RPMI-1640 culture media with either 10% human serum or 0.5% Albumax serum substitute under 3% O2, 5% CO2, and 92% N2. Parasites synchronized to ring stage by treatments with 5% D-sorbitol were cultured with serial dilutions of benzoxaboroles from 5 to 10 mM stocks in 96 well microplate cultures including 200 μL of media/well, 2% hematocrit, and 1% parasitemia. At the completion of 48 h incubations, when untreated cultures contained new rings, parasites were fixed with 2% formaldehyde for 48 h, and 5 μL aliquots were transferred to another 96 well plate containing 150 μL/well of staining solution (100 mM NH4Cl, 0.1% Triton X-100, and 1 nM YOYO-1 in PBS). Parasites per erythrocyte were then determined by flow cytometry from plots of forward scatter against fluorescence (excitation 488 nm, emission 520 nm) using a FacSort flow cytometer (Beckton Dickinson) equipped with an AMS Loader (Cytek Development). All values were normalized to percent control activity, and IC50s were calculated using the Prism 3.0 program (GRAPHPAD Software). Goodness of fit was assessed by R^2 values, and meaningful dose-response curves yielded R^2 values >0.95.

CC[C@H](CO)NC(=O)c1cnc(Oc2ccc3c(c2C)B(O)OC3)cn1 [Example 19, (R)-5-(1-hydroxy-7-methyl-1,3-dihydrobenzo[c][1,2]oxaborol-6-yloxy)-N-(1-hydroxybutan-2-yl)pyrazine-2-carboxamide]
IC50 [1]: 403 nM | IC50 [2]: 136 nM

COCCNC(=O)c1cnc(Oc2ccc3c(c2C)B(O)OC3)cn1 [Example 2, 5-(1-hydroxy-7-methyl-1,3-dihydrobenzo[c][1,2]oxaborol-6-yloxy)-N-(2-methoxyethyl)pyrazine-2-carboxamide]
IC50 [1]: 644 nM | IC50 [2]: 788 nM

Cc1c(Oc2cnc(C(=O)NC(CO)C3CC3)cn2)ccc2c1B(O)OC2 (stereo not shown) [Example 22, N-(1-cyclopropyl-2-hydroxyethyl)-5-(1-hydroxy-7-methyl-1,3-dihydrobenzo[c][1,2]oxaborol-6-yloxy)pyrazine-2-carboxamide]
IC50 [1]: 1150 nM | IC50 [2]: 458 nM

Cc1c(Oc2cnc(C(=O)N[C@@H](CO)CC(F)(F)F)cn2)ccc2c1B(O)OC2 [Example 33, (R)-5-(1-hydroxy-7-methyl-1,3-dihydrobenzo[c][1,2]oxaborol-6-yloxy)-N-(4,4,4-trifluoro-1-hydroxybutan-2-yl)pyrazine-2-carboxamide]
IC50 [1]: 149 nM | IC50 [2]: 82.2 nM

CCC[C@H](CO)NC(=O)c1cnc(Oc2ccc3c(c2C)B(O)OC3)cn1 [Example 14, (R)-5-(1-hydroxy-7-methyl-1,3-dihydrobenzo[c][1,2]oxaborol-6-yloxy)-N-(1-hydroxypentan-2-yl)pyrazine-2-carboxamide]
IC50 [1]: 201 nM | IC50 [2]: 161 nM

Cc1c(Oc2cnc(C(=O)N[C@@H](CO)CS(C)(=O)=O)cn2)ccc2c1B(O)OC2 [Example 36, (S)—N-(1-hydroxy-3-(methylsulfonyl)propan-2-yl)-5-(1-hydroxy-7-methyl-1,3-dihydrobenzo[c][1,2]oxaborol-6-yloxy)pyrazine-2-carboxamide]
IC50 [1]: 472 nM | IC50 [2]: 201 nM

Cc1c(Oc2cnc(C(=O)N[C@@H]3CCC[C@@H]3O)cn2)ccc2c1B(O)OC2 (relative stereo) [Example 49, 5-((1-hydroxy-7-methyl-1,3-dihydrobenzo[c][1,2]oxaborol-6-yl)oxy)-N-(cis-2-hydroxycyclopentyl)pyrazine-2-carboxamide]
IC50 [1]: 181 nM | IC50 [2]: 292 nM

C=CC(CO)NC(=O)c1cnc(Oc2ccc3c(c2C)B(O)OC3)cn1 (stereo not shown) [Example 20, 5-(1-hydroxy-7-methyl-1,3-dihydrobenzo[c][1,2]oxaborol-6-yloxy)-N-(1-hydroxybut-3-en-2-yl)pyrazine-2-carboxamide]
IC50 [1]: 786 nM | IC50 [2]: 535 nM

Cc1c(Oc2cnc(C(=O)N[C@H](CO)CC(F)(F)F)cn2)ccc2c1B(O)OC2 [Example 34, (S)-5-(1-hydroxy-7-methyl-1,3-dihydrobenzo[c][1,2]oxaborol-6-yloxy)-N-(4,4,4-trifluoro-1-hydroxybutan-2-yl)pyrazine-2-carboxamide]
IC50 [1]: 452 nM | IC50 [2]: 350 nM

Cc1c(Oc2cnc(C(=O)NCC(C)(C)O)cn2)ccc2c1B(O)OC2 [Example 4, N-(2-hydroxy-2-methylpropyl)-5-(1-hydroxy-7-methyl-1,3-dihydrobenzo[c][1,2]oxaborol-6-yloxy)pyrazine-2-carboxamide]
IC50 [1]: 554 nM | IC50 [2]: 334 nM

C=C[C@H](CO)NC(=O)c1cnc(Oc2ccc3c(c2C)B(O)OC3)cn1 [Example 30, (R)-5-(1-hydroxy-7-methyl-1,3-dihydrobenzo[c][1,2]oxaborol-6-yloxy)-N-(1-hydroxybut-3-en-2-yl)pyrazine-2-carboxamide]
IC50 [1]: 536 nM | IC50 [2]: 317 nM

Cc1c(Oc2cnc(C(=O)N3CC(C)(O)C3)cn2)ccc2c1B(O)OC2 [Example 41, (3-hydroxy-3-methylazetidin-1-yl) (5-((1-hydroxy-7-methyl-1,3-dihydrobenzo[c][1,2]oxaborol-6-yl)oxy)pyrazin-2-yl)methanone]
IC50 [1]: 70.6 nM | IC50 [2]: 32.6 nM

Cc1c(Oc2cnc(C(=O)NC(C)CO)cn2)ccc2c1B(O)OC2 (stereo not shown) [Example 5, 5-(1-hydroxy-7-methyl-1,3-dihydrobenzo[c][1,2]oxaborol-6-yloxy)-N-(1-hydroxypropan-2-yl)pyrazine-2-carboxamide]
IC50 [1]: 317 nM | IC50 [2]: 92.3 nM

Cc1c(Oc2cnc(C(=O)NC3(CO)CC3)cn2)ccc2c1B(O)OC2 [Example 17, 5-((1-hydroxy-7-methyl-1,3-dihydrobenzo[c][1,2]oxaborol-6-yl)oxy)-N-(1-(hydroxymethyl)cyclopropyl)pyrazine-2-carboxamide]
IC50 [1]: 1500 nM | IC50 [2]: 2010 nM

Cc1c(Oc2cnc(C(=O)N[C@@H](C)CO)cn2)ccc2c1B(O)OC2 [Example 12, (S)-5-(1-hydroxy-7-methyl-1,3-dihydrobenzo[c][1,2]oxaborol-6-yloxy)-N-(1-hydroxypropan-2-yl)pyrazine-2-carboxamide]
IC50 [1]: 808 nM | IC50 [2]: 844 nM

Cc1c(Oc2cnc(C(=O)NC(CO)C(C)C)cn2)ccc2c1B(O)OC2 (stereo not shown) [Example 7, N-(1-hydroxy-3-methylbutan-2-yl)-5-(1-hydroxy-7-methyl-1,3-dihydrobenzo[c][1,2]oxaborol-6-yloxy)pyrazine-2-carboxamide]
IC50 [1]: 96.5 nM | IC50 [2]: 115 nM

Cc1c(Oc2cnc(C(=O)N3CCC(C)(O)C3)cn2)ccc2c1B(O)OC2 (racemic) [Example 40, (3-hydroxy-3-methylpyrrolidin-1-yl) (5-((1-hydroxy-7-methyl-1,3-dihydrobenzo[c][1,2]oxaborol-6-yl)oxy)pyrazin-2-yl)methanone]
IC50 [1]: 314 nM | IC50 [2]: 139 nM

Cc1c(Oc2cnc(C(=O)N[C@@H](CO)c3ccccc3)cn2)ccc2c1B(O)OC2 [Example 26, (R)—N-(2-hydroxy-1-phenylethyl)-5-(1-hydroxy-7-methyl-1,3-dihydrobenzo[c][1,2]oxaborol-6-yloxy)pyrazine-2-carboxamide]
IC50 [1]: 161 nM | IC50 [2]: 103 nM

Cc1c(Oc2cnc(C(=O)NCC(C)O)cn2)ccc2c1B(O)OC2 (stereo not shown) [Example 9, 5-(1-hydroxy-7-methyl-1,3-dihydrobenzo[c][1,2]oxaborol-6-yloxy)-N-(2-hydroxypropyl)pyrazine-2-carboxamide]
IC50 [1]: 1100 nM | IC50 [2]: 1280 nM

Cc1c(Oc2cnc(C(=O)N[C@@H](CO)CCC(F)(F)F)cn2)ccc2c1B(O)OC2 [Example 37, (R)-5-(1-hydroxy-7-methyl-1,3-dihydrobenzo[c][1,2]oxaborol-6-yloxy)-N-(5,5,5-trifluoro-1-hydroxypentan-2-yl)pyrazine-2-carboxamide]
IC50 [1]: 480 nM | IC50 [2]: 230 nM

Cc1c(Oc2cnc(C(=O)N3CC(O)(C4CC4)C3)cn2)ccc2c1B(O)OC2 [Example 55, (3-cyclopropyl-3-hydroxyazetidin-1-yl) (5-((1-hydroxy-7-methyl-1,3-dihydrobenzo[c][1,2]oxaborol-6-yl)oxy)pyrazin-2-yl)methanone]
IC50 [1]: 234 nM | IC50 [2]: 51.7 nM

Cc1c(Oc2cnc(C(=O)N[C@H](C)C(C)(C)O)cn2)ccc2c1B(O)OC2 [Example 48, (R)—N-(3-hydroxy-3-methylbutan-2-yl)-5-(1-hydroxy-7-methyl-1,3-dihydrobenzo[c][1,2]oxaborol-6-yloxy)pyrazine-2-carboxamide]
IC50 [1]: 374 nM | IC50 [2]: 265 nM

Cc1c(Oc2cnc(C(=O)N[C@@H](C)C(C)(C)O)cn2)ccc2c1B(O)OC2 [Example 47, (S)—N-(3-hydroxy-3-methylbutan-2-yl)-5-(1-hydroxy-7-methyl-1,3-dihydrobenzo[c][1,2]oxaborol-6-yloxy)pyrazine-2-carboxamide]
IC50 [1]: 327 nM | IC50 [2]: 202 nM
